Source: patent publication US20100098788A1, “Extracts of Curcuma and Methods of Use Thereof” (priority 2008, published 2010)
Like-named read-outs stand apart in the source and are kept apart here.

Columns and labels:
Aβ1-42 aggregation = biological target: T1, Aβ1-42 aggregation (Homo sapiens, UniProt P05067); assay: Interaction matrices of Extract 1 with extracts and curcuminoids in the Aβ1-42 aggregation assay; type: biochemical
T1 construct: carried out with the synthetic Aβ1-42 peptide incubated with the extracts

[1] = test system: IL-4 and IL-2 in splenocytes of Tg2576 mice; assay: Cytokine ELISA of anti-CD3 stimulated primary splenocyte cultures from treated mice; type: in vivo; conditions: splenocytes stimulated 24 h with anti-CD3 antibody
Procedure: FIG. 9 depicts the IL-4 to IL-2 cytokine profile of Extract 1- and THC-treated Tg2576 mice. Following sacrifice, primary cultures of splenocytes were established from the mice and stimulated for 24 hours with anti-CD3 antibody.
The Tg2576 mice, which are engineered to develop AD within ca. 6 months after birth, were purchased from Taconic (Germantown, N.Y.). For oral administration of extracts, a total of 60 (30 female/30 male) Tg2576 mice with a B6/SJL background were employed. […]
As described in the previous studies (J. Tan, T. Town, D. Paris, T. Mori, Z. Suo, F. Crawford, M. P. Mattson, R. A. Flavell and M. Mullan, 1999. Microglial activation resulting from CD40-CD40L interaction after beta-amyloid stimulation, Science. 286:2352-2355; J. Tan, T. Town, M. Saxe, D. Paris, Y. Wu and M. Mullan, 1999. Ligation of microglial CD40 results in p44/42 mitogen-activated protein kinase-dependent TNF-alpha production that is opposed by TGF-beta 1 and IL-10, J. Immunol. 163:6614-6621) cell cultured media were collected for measurement of cytokines by commercial cytokine ELISA kits. […] Cytokines were quantified using commercially available ELISAs (BioSource International, Inc., Camarillo, Calif.) that allow for detection of IL-2 and IL-4. […]

[2] = test system: phosphorylated tau (Ser199/220 and AT8 antibodies) in Tg2576 mice; assay: Western blot of phosphorylated tau in brain homogenates after oral treatment; type: in vivo; conditions: soluble fraction, oral 0.07% in chow, 6 months
Procedure: The Tg2576 mice, which are engineered to develop AD within ca. 6 months after birth, were purchased from Taconic (Germantown, N.Y.). For oral administration of extracts, a total of 60 (30 female/30 male) Tg2576 mice with a B6/SJL background were employed. Beginning at 8 months of age, Tg2576 treatment mice were administered optimized turmeric Extract 1 and THC in NIH31 chow (0.07% in NIH31 chow, 167 mg/kg/day) or NIH31 chow alone (Control) for 6 months [n=20 (10 female/10 male)]. All mice were sacrificed at 14 months of age for analyses of Aβ levels and Aβ load in the brain according to previously described methods (J. Tan, T. Town, F. Crawford, T. Mori, A. DelleDonne, R. Crescentini, D. Obregon, R. A. Flavell and M. J. Mullan, 2002. Role of CD40 ligand in amyloidosis in transgenic Alzheimer's mice, Nat. Neurosci. 5:1288-1293). […]
Brain homogenates were obtained as previously described above. […] Densitometric analysis was done as previously described using a FluorS Multiimager with Quantity One™ software (BioRad, Hercules, Calif.) (K. Rezai-Zadeh, D. Shytle, N. Sun, T. Mori, H. Hou, D. Jeanniton, J. Ehrhart, K. Townsend, J. Zeng, D. Morgan, J. Hardy, T. Town and J. Tan, 2005. Green tea epigallocatechin-3-gallate (EGCG) modulates amyloid precursor protein cleavage and reduces cerebral amyloidosis in Alzheimer transgenic mice, J. Neurosci. 25:8807-8814).

[3] = test system: Aβ1-40, 42 peptides secreted from SweAPP N2a cells; assay: Aβ secretion ELISA in conditioned media of SweAPP N2a cells; type: cell-based; conditions: 3-30 μg/ml, 12 h
Aβ1-42 peptide = biological target: T2, Aβ1-42 peptide (Homo sapiens, UniProt P05067); assay: Amyloid aggregation assay (thioflavin T fluorescence); type: biochemical; conditions: 0 to 30 μg mL^−1, 120 h, 37° C.
T2 construct: carried out with the synthetic Aβ1-42 peptide incubated with the extracts
T2 sequence (P05067 672-713): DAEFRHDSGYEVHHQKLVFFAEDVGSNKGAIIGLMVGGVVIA

T1 sequence (P05067 672-713): as above

COc1cc(CCC(=O)CC(=O)CCc2ccc(O)c(OC)c2)ccc1O [THC, tetrahydrocurcumin] was tested, and the IC50 (Aβ1-42 aggregation) was 95.3 µM, the “ratio of IL-4 to IL-2 cytokine levels” value [1] was 0.8 and the “reduction of tau hyper-phosphorylation compared to control” value [2] was “ca. 40%”.

In the case of COc1cc(/C=C/C(O)=C/C(=O)/C=C/c2ccc(O)cc2)ccc1O [DMC, demethoxycurcumin], the IC50 (Aβ1-42 aggregation; extract or standard alone, Aβ1-42 aggregation, read-out: IC50 Individual (converted)) is reported as 1700 µM and the “inhibition of Aβ generation” value [3] is reported as “ca. 10%”.

In the case of COc1cc(/C=C/C(=O)CC(=O)/C=C/c2ccc(O)c(OC)c2)ccc1O [Curcumin, curcumin], the Effect (Aβ1-42 aggregation; interaction with Extract 1 (synergistic, antagonistic or additive)) is reported as “Additive” and the “inhibition of Aβ1-42 aggregation” value (Aβ1-42 peptide) is reported as “effective”.
